Measurements as given in the kinase profiling compilation of Christmann-Franck et al. (2016).

Tests used:
Assay in all cases: KINOMEscan competition binding
Conditions in all cases: compound 10.0 µM
AURKA (human) = AURKA (human) (UniProt O14965)
AURKC (human) = AURKC (human) (UniProt Q9UQB9)
AXL (human) = AXL (human) (UniProt P30530)
CAMK4 (human) = CAMK4 (human) (UniProt Q16566)
CDK14 (human) = CDK14 (human) (UniProt O94921)
CSNK1G1 (human) = CSNK1G1 (human) (UniProt Q9HCP0)
DAPK1 (human) = DAPK1 (human) (UniProt P53355)
GAK (human) = GAK (human) (UniProt O14976)
[1] = target: JAK2 JH1 catalytic (human) (UniProt O60674)
[2] = tested on: KIT (human), P10721 [V559D/V654A]
MAP2K1 (human) = MAP2K1 (human) (UniProt Q02750)
MAP2K3 (human) = MAP2K3 (human) (UniProt P46734)
MAP2K4 (human) = MAP2K4 (human) (UniProt P45985)
MAP3K11 (human) = MAP3K11 (human) (UniProt Q16584)
MAPKAPK5 (human) = MAPKAPK5 (human) (UniProt Q8IW41)
MST4 (human) = MST4 (human) (UniProt Q9P289)
NEK9 (human) = NEK9 (human) (UniProt Q8TD19)
PHKG1 (human) = PHKG1 (human) (UniProt Q16816)
PKMYT1 (human) = PKMYT1 (human) (UniProt Q99640)
PLK3 (human) = PLK3 (human) (UniProt Q9H4B4)
PRKD1 (human) = PRKD1 (human) (UniProt Q15139)
[3] = tested on: RET (human), P07949 [M918T]
RIPK2 (human) = RIPK2 (human) (UniProt O43353)
STK16 (human) = STK16 (human) (UniProt O75716)
STK24 (human) = STK24 (human) (UniProt Q9Y6E0)
STK3 (human) = STK3 (human) (UniProt Q13188)
STK36 (human) = STK36 (human) (UniProt Q9NRP7)
STK38L (human) = STK38L (human) (UniProt Q9Y2H1)
TGFBR1 (human) = TGFBR1 (human) (UniProt P36897)
TLK1 (human) = TLK1 (human) (UniProt Q9UKI8)
TTK (human) = TTK (human) (UniProt P33981)
CAMK2B (human) = CAMK2B (human) (UniProt Q13554)
CDK5 (human) = CDK5 (human) (UniProt Q00535)
Chain of CDK5 (human) (Q00535 whole entry, looked up): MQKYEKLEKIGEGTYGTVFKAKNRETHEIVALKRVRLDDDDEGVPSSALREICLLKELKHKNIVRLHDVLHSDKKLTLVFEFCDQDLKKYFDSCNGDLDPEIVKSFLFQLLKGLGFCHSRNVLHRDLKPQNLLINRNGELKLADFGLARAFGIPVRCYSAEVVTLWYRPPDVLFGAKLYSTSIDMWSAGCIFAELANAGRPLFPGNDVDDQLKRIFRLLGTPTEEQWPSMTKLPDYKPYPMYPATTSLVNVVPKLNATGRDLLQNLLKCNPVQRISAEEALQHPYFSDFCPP

Chain of AXL (human) (P30530 whole entry, looked up): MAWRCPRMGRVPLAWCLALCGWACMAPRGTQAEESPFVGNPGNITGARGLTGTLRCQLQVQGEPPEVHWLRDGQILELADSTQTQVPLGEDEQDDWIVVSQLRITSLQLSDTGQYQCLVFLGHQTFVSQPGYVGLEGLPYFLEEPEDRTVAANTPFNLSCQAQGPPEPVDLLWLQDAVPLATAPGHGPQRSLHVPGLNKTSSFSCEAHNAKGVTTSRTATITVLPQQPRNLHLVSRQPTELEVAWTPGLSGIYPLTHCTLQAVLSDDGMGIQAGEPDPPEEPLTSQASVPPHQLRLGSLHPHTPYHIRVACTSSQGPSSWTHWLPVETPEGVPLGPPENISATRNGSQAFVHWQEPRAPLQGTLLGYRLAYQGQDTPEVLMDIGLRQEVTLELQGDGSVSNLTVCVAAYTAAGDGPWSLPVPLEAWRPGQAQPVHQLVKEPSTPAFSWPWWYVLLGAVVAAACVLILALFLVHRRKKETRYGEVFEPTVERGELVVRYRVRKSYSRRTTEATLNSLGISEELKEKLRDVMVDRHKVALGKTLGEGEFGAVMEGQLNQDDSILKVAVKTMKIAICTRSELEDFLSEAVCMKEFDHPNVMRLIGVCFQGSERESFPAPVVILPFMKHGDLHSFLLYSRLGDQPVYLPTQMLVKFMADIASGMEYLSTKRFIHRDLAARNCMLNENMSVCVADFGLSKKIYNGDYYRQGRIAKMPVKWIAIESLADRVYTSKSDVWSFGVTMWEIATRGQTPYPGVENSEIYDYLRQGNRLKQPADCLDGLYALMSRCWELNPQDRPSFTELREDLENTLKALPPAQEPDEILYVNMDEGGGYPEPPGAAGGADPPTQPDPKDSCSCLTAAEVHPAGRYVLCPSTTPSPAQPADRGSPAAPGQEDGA
Chain of TGFBR1 (human) (P36897 whole entry, looked up): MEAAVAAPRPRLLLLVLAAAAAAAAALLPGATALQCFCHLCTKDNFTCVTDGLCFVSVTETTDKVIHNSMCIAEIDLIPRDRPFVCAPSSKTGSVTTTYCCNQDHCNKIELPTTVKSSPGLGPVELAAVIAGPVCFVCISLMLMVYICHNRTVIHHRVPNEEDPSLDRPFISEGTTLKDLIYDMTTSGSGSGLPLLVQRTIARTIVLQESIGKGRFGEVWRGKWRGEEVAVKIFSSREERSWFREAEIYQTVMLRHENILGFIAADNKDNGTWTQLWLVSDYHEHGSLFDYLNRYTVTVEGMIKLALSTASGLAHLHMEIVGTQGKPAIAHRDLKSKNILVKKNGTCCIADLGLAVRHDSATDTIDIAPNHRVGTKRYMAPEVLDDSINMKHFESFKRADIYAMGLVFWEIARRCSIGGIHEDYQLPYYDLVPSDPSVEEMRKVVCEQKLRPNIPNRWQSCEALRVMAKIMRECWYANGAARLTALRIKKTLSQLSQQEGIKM
Chain of MAP2K4 (human) (P45985 whole entry, looked up): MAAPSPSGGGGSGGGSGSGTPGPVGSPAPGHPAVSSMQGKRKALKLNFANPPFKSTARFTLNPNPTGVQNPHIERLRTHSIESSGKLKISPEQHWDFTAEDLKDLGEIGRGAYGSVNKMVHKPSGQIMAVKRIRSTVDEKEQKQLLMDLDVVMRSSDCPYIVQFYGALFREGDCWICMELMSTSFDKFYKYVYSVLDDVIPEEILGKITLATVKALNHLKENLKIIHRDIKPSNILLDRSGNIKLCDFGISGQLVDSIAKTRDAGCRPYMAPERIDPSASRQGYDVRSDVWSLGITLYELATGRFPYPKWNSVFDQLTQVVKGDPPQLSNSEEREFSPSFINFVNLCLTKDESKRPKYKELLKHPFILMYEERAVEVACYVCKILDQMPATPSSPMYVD
Chain of NEK9 (human) (Q8TD19 whole entry, looked up): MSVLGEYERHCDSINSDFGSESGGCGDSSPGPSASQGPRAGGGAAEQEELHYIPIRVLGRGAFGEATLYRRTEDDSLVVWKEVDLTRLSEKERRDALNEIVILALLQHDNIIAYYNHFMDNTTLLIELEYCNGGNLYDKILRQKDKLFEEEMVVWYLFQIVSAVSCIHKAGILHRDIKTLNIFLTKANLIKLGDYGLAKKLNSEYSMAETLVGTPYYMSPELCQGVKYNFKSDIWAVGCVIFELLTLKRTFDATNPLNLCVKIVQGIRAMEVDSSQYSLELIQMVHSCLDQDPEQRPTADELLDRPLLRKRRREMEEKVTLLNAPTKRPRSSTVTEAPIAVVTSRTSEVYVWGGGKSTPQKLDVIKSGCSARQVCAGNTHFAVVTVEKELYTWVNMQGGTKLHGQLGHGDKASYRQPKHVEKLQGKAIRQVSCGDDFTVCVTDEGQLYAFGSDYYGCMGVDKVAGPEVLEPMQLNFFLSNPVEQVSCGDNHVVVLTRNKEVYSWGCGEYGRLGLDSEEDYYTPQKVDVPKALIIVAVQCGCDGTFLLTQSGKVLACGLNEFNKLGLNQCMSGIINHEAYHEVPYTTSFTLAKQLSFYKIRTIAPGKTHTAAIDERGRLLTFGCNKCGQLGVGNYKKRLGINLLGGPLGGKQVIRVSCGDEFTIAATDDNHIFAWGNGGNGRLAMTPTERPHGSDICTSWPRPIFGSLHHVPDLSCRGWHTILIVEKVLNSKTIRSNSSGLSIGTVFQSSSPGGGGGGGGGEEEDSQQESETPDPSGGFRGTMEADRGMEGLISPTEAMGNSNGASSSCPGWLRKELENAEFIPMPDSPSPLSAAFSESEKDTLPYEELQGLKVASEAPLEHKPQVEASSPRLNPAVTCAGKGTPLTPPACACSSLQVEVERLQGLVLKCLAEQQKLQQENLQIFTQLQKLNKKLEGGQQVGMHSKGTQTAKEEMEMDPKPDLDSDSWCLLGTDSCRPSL
Chain of STK24 (human) (Q9Y6E0 whole entry, looked up): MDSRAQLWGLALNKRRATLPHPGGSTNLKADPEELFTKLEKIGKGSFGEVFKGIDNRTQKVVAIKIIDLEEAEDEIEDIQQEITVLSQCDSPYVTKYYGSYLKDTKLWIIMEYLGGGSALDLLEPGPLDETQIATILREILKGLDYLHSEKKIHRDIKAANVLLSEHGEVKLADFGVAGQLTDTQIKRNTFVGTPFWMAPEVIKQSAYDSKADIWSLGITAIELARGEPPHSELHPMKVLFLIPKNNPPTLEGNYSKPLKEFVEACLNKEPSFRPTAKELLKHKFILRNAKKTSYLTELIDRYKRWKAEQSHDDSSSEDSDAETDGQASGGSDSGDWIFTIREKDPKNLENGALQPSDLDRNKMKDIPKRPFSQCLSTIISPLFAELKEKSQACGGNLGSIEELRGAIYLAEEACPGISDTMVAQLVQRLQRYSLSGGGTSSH
Chain of MAPKAPK5 (human) (Q8IW41 whole entry, looked up): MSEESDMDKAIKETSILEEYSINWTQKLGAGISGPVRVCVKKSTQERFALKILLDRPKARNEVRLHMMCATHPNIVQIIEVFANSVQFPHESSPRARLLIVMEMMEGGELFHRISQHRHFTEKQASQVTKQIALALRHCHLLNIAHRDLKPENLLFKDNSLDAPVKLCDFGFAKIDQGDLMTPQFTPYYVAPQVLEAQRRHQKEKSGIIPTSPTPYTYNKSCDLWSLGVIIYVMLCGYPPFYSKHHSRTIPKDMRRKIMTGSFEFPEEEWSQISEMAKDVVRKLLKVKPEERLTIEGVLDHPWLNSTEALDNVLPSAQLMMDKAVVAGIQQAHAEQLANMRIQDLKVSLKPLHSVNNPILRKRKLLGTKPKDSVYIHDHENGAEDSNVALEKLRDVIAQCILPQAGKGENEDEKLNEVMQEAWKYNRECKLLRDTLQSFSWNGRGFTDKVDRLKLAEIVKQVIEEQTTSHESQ
Chain of CAMK2B (human) (Q13554 whole entry, looked up): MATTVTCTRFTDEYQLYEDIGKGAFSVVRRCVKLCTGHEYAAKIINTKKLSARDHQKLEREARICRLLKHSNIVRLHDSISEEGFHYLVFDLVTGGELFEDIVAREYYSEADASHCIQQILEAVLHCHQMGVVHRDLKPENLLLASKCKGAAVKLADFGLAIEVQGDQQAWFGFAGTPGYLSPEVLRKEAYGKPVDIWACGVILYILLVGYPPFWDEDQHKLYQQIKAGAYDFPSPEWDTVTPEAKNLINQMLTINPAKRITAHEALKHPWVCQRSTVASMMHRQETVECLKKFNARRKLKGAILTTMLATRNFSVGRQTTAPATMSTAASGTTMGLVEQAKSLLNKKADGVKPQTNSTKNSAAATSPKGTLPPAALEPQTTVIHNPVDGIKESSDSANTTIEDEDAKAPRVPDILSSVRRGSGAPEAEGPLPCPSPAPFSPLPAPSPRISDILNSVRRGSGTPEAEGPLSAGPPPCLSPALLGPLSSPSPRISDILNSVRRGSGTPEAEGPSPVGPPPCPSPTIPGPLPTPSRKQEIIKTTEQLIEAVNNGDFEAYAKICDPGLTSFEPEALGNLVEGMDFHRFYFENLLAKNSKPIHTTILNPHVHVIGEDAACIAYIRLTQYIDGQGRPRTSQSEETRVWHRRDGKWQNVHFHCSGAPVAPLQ
Chain of AURKC (human) (Q9UQB9 whole entry, looked up): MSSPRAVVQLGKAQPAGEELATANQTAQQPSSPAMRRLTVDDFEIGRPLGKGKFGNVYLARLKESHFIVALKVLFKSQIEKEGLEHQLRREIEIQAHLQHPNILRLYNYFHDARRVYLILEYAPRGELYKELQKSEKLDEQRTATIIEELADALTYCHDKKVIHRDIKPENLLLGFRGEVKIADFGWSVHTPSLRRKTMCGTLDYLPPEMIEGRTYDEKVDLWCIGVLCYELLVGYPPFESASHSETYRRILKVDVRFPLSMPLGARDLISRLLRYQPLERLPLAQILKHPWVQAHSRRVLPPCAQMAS

Cc1n[nH]c2ccc(-c3cncc(OC[C@@H](N)Cc4c[nH]c5ccccc45)c3)cc12
kinase still bound, per cent of control (AURKA (human)): 100% | kinase still bound, per cent of control (AURKC (human)): 34% | kinase still bound, per cent of control (AXL (human)): 14% | kinase still bound, per cent of control (CAMK4 (human)): 12% | kinase still bound, per cent of control (CDK14 (human)): 9.8% | kinase still bound, per cent of control (CSNK1G1 (human)): 3.7% | kinase still bound, per cent of control (DAPK1 (human)): 2.2% | kinase still bound, per cent of control (GAK (human)): 8.1% | kinase still bound, per cent of control [1]: 100% | kinase still bound, per cent of control [2]: 100% | kinase still bound, per cent of control (MAP2K1 (human)): 100% | kinase still bound, per cent of control (MAP2K3 (human)): 7.1% | kinase still bound, per cent of control (MAP2K4 (human)): 100% | kinase still bound, per cent of control (MAP3K11 (human)): 100% | kinase still bound, per cent of control (MAPKAPK5 (human)): 100% | kinase still bound, per cent of control (MST4 (human)): 30% | kinase still bound, per cent of control (NEK9 (human)): 100% | kinase still bound, per cent of control (PHKG1 (human)): 8% | kinase still bound, per cent of control (PKMYT1 (human)): 100% | kinase still bound, per cent of control (PLK3 (human)): 100% | kinase still bound, per cent of control (PRKD1 (human)): 2% | kinase still bound, per cent of control [3]: 100% | kinase still bound, per cent of control (RIPK2 (human)): 100% | kinase still bound, per cent of control (STK16 (human)): 100% | kinase still bound, per cent of control (STK24 (human)): 100% | kinase still bound, per cent of control (STK3 (human)): 0.35% | kinase still bound, per cent of control (STK36 (human)): 100% | kinase still bound, per cent of control (STK38L (human)): 100% | kinase still bound, per cent of control (TGFBR1 (human)): 100% | kinase still bound, per cent of control (TLK1 (human)): 100% | kinase still bound, per cent of control (TTK (human)): 100%

CCN(CC)CCCCNc1ncc2cc(-c3cc(OC)cc(OC)c3)c(NC(=O)NC(C)(C)C)nc2n1
kinase still bound, per cent of control (AURKA (human)): 100% | kinase still bound, per cent of control (AURKC (human)): 100% | kinase still bound, per cent of control (AXL (human)): 100% | kinase still bound, per cent of control (CAMK2B (human)): 100% | kinase still bound, per cent of control (CAMK4 (human)): 100% | kinase still bound, per cent of control (CDK14 (human)): 100% | kinase still bound, per cent of control (CDK5 (human)): 100% | kinase still bound, per cent of control (CSNK1G1 (human)): 100% | kinase still bound, per cent of control (DAPK1 (human)): 100% | kinase still bound, per cent of control (GAK (human)): 100% | kinase still bound, per cent of control [1]: 100% | kinase still bound, per cent of control [2]: 100% | kinase still bound, per cent of control (MAP2K1 (human)): 100% | kinase still bound, per cent of control (MAP2K3 (human)): 100% | kinase still bound, per cent of control (MAP2K4 (human)): 100% | kinase still bound, per cent of control (MAP3K11 (human)): 100% | kinase still bound, per cent of control (MAPKAPK5 (human)): 100% | kinase still bound, per cent of control (MST4 (human)): 100% | kinase still bound, per cent of control (NEK9 (human)): 100% | kinase still bound, per cent of control (PHKG1 (human)): 100% | kinase still bound, per cent of control (PKMYT1 (human)): 100% | kinase still bound, per cent of control (PLK3 (human)): 100% | kinase still bound, per cent of control (PRKD1 (human)): 100% | kinase still bound, per cent of control [3]: 100% | kinase still bound, per cent of control (RIPK2 (human)): 100% | kinase still bound, per cent of control (STK16 (human)): 100% | kinase still bound, per cent of control (STK24 (human)): 7% | kinase still bound, per cent of control (STK3 (human)): 100% | kinase still bound, per cent of control (STK36 (human)): 100% | kinase still bound, per cent of control (STK38L (human)): 100% | kinase still bound, per cent of control (TGFBR1 (human)): 100% | kinase still bound, per cent of control (TLK1 (human)): 100% | kinase still bound, per cent of control (TTK (human)): 100%

CNC(=O)c1ccc(Nc2cc(Nc3ccccc3S(=O)(=O)C(C)C)c3cc[nH]c3n2)nc1
kinase still bound, per cent of control (AURKA (human)): 2.7% | kinase still bound, per cent of control (AURKC (human)): 0.65% | kinase still bound, per cent of control (AXL (human)): 1.3% | kinase still bound, per cent of control (CAMK2B (human)): 100% | kinase still bound, per cent of control (CAMK4 (human)): 100% | kinase still bound, per cent of control (CDK14 (human)): 100% | kinase still bound, per cent of control (CDK5 (human)): 28% | kinase still bound, per cent of control (CSNK1G1 (human)): 16% | kinase still bound, per cent of control (DAPK1 (human)): 100% | kinase still bound, per cent of control (GAK (human)): 2.5% | kinase still bound, per cent of control [1]: 1.6% | kinase still bound, per cent of control [2]: 100% | kinase still bound, per cent of control (MAP2K1 (human)): 3% | kinase still bound, per cent of control (MAP2K3 (human)): 10% | kinase still bound, per cent of control (MAP2K4 (human)): 100% | kinase still bound, per cent of control (MAP3K11 (human)): 7.2% | kinase still bound, per cent of control (MAPKAPK5 (human)): 100% | kinase still bound, per cent of control (MST4 (human)): 19% | kinase still bound, per cent of control (NEK9 (human)): 100% | kinase still bound, per cent of control (PHKG1 (human)): 100% | kinase still bound, per cent of control (PKMYT1 (human)): 100% | kinase still bound, per cent of control (PLK3 (human)): 100% | kinase still bound, per cent of control (PRKD1 (human)): 100% | kinase still bound, per cent of control [3]: 1.4% | kinase still bound, per cent of control (RIPK2 (human)): 100% | kinase still bound, per cent of control (STK16 (human)): 2.8% | kinase still bound, per cent of control (STK24 (human)): 100% | kinase still bound, per cent of control (STK3 (human)): 0.2% | kinase still bound, per cent of control (STK36 (human)): 100% | kinase still bound, per cent of control (STK38L (human)): 15% | kinase still bound, per cent of control (TGFBR1 (human)): 100% | kinase still bound, per cent of control (TLK1 (human)): 100% | kinase still bound, per cent of control (TTK (human)): 4.6%

C=CC(=O)Nc1ccc(CN(C(=O)Nc2c(Cl)c(OC)cc(OC)c2Cl)c2cc(Nc3ccc(N4CCN(C)CC4)cc3)ncn2)cc1
kinase still bound, per cent of control (AURKA (human)): 100% | kinase still bound, per cent of control (AURKC (human)): 100% | kinase still bound, per cent of control (AXL (human)): 100% | kinase still bound, per cent of control (CAMK2B (human)): 100% | kinase still bound, per cent of control (CAMK4 (human)): 100% | kinase still bound, per cent of control (CDK14 (human)): 100% | kinase still bound, per cent of control (CDK5 (human)): 100% | kinase still bound, per cent of control (CSNK1G1 (human)): 100% | kinase still bound, per cent of control (DAPK1 (human)): 100% | kinase still bound, per cent of control (GAK (human)): 100% | kinase still bound, per cent of control [1]: 100% | kinase still bound, per cent of control [2]: 100% | kinase still bound, per cent of control (MAP2K1 (human)): 100% | kinase still bound, per cent of control (MAP2K3 (human)): 100% | kinase still bound, per cent of control (MAP2K4 (human)): 100% | kinase still bound, per cent of control (MAP3K11 (human)): 10% | kinase still bound, per cent of control (MAPKAPK5 (human)): 100% | kinase still bound, per cent of control (MST4 (human)): 100% | kinase still bound, per cent of control (NEK9 (human)): 100% | kinase still bound, per cent of control (PHKG1 (human)): 100% | kinase still bound, per cent of control (PKMYT1 (human)): 100% | kinase still bound, per cent of control (PLK3 (human)): 100% | kinase still bound, per cent of control (PRKD1 (human)): 100% | kinase still bound, per cent of control [3]: 0.4% | kinase still bound, per cent of control (RIPK2 (human)): 100% | kinase still bound, per cent of control (STK16 (human)): 100% | kinase still bound, per cent of control (STK24 (human)): 18% | kinase still bound, per cent of control (STK3 (human)): 100% | kinase still bound, per cent of control (STK36 (human)): 100% | kinase still bound, per cent of control (STK38L (human)): 100% | kinase still bound, per cent of control (TGFBR1 (human)): 100% | kinase still bound, per cent of control (TLK1 (human)): 100% | kinase still bound, per cent of control (TTK (human)): 100%
